Patent US20250325516A1, “SEROTONIN ANALOGUES FOR USE IN TREATING METALLOPTOSIS-ASSOCIATED DISORDERS” (INSTITUT CURIE, priority 2022, published 2025)
“Also recorded” adds a separate entry of the source. Where a name gives a salt, the structure may show the parent alone.

What was measured:
PDAC cells [1] = test: Click-labelling fluorescence microscopy with LysoTracker and organelle antibodies, PDAC cells (FIG. 9); format: cell-based; settings: 10 μM, 3 h
Description: Pancreatic Ductal Adenocarcinoma (PDAC) cells were grown at 37° C. and 5% CO2 using medium prepared based on previously described (https://doi.org/10.1053/j.gastro.2004.03.058). Cells were plated on cover slips 24 h prior to the experiment. The cells were treated with 10 µM of compounds for 3 h and LysoTracker Deep Red (ThermoFisher Scientific L12492, 1:10000) according to the manufacturer's protocol. Subsequently, cells were washed three times with 1×PBS and fixed with 2% paraformaldehyde (w/v) in 1×PBS for 12 min, and then washed three times with 1×PBS. After fixation, cells were permeabilized with 0.1% Triton X-100 (v/v) in 1×PBS for 5 min and washed three times with 1×PBS. Then, cells were blocked in 2% BSA, 0.2% Tween-20 (w/v)/1×PBS (blocking buffer) for 20 min at RT. The click reaction cocktail was prepared from Click-iT EdU Imaging Kits (ThermoFisher Scientific, C10337) according to the manufacturer's protocol. Briefly, 868 μL of 1× Click-iT reaction buffer was mixed with 40 μl CuSO4 solution, 2 μL Alexa Fluor azide and 90 μl reaction buffer additive (sodium ascorbate) to reach a final volume of 1 mL. Cover slips were incubated with 50 μl of the click reaction cocktail in the dark at RT for 30 minutes, then washed three times with 1×PBS. Further, cells were incubated with the relevant antibody in blocking buffer for 1 h at room temperature and washed three times with blocking buffer. Then, cells were incubated with secondary antibodies for 1 h. Finally, cover slips were washed three times with 1×PBS and mounted using VECTASHIELD (Vector Laboratories) containing DAPI and were sealed with nail varnish Express manucure (Maybelline, 16P201). Fluorescence images were acquired using a Deltavision real-time microscope (Applied Precision). 100×/1.4NA objectives were used for 2D and 3D acquisitions that were deconvoluted with SoftWorx (Ratio conservative-10 iterations, Applied Precision) and processed with ImageJ.

PDAC cells [2] = test: Anti-ferroptotic activity: BODIPY-C11 flow cytometry, PDAC cells co-treated with RSL3 (FIG. 8); format: cell-based; settings: RSL3 200 nM, compounds 10 μM
Description: (§1) Pancreatic Ductal Adenocarcinoma (PDAC) cells were grown at 37° C. and 5% CO2 using medium prepared based on previously described (https://doi.org/10.1053/j.gastro.2004.03.058).
PDAC cells were seeded on 6 well plates at the density of 2×10^5 cells/well. RSL3 (200 nM) was added along with compounds (10 μM for screening) on the following day and after 23 hr, BODIPY (4 μM) was added for 1 hr. The media was removed and the cells were washed with PBS twice before typsinization. The cells were harvested, pelleted, washed with PBS and finally PBS buffer containing 10% FBS and EDTA, was added for flow cytometry. The results are shown in FIG. 8 and this enabled us to establish a robust structure activity relationship on the serotonin scaffold.

[3] = Colorimetric assessment of metal complex formation in aqueous solution; format: binding; settings: for colour of solution in the presence of FeCl3 and CuSO4, indicative of complex formation: aqueous solution, 3 equiv. compound, C=0.1 M; for complex formation with Fe(II), Fe(III) and Cu(II): colorimetric complexation studies in solution (FIG. 1) and NMR spectroscopy (FIG. 2)
Description: […] assessment of complex formation: To an aqueous solution of serotonin hydrochloride (3 equiv., C=0.1 M) or A3 formic salt (3 equiv., C=0.1 M) iron (III) chloride (1 equiv.) or copper (II) sulfate (C=0.1 M) was added. A color change characterized the formation of metal complexes.

[4] = Cyclic voltammetry of FeCl3 after addition of compounds (FIG. 10b); format: binding; settings: 1 mM FeCl3 in 0.3 M nBu4NBF4 in MeCN, scan rate 2 V/s
Description: Cyclic voltammetry experiments were performed with a three-electrode cell under argon. Saturated Calomel Electrode (SCE) was used as reference, a steady Glassy Carbon (GC) electrode of diameter 3 mm was selected as working electrode and a Platinum wire as counter-electrode. All cyclic voltammograms were recorded at RT with a μ-autolab III from Metrohm using Nova software with a scan rate of 2 V/s. MeCN was used as a degassed HPLC grade from Carlo Erba. Water was mQ H2O. Stock solution of FeCl3 (100 mM) and Lip-1, A3, A0 and DFO (20 mM) were prepared with 0.3 M nBu4NBF4 in MeCN. 1 mM FeCl3 in 0.3 M nBu4NBF4 in MeCN (1 mL) was used as working solution for recording and subsequently equivalents of compounds were added, stirred and recorded.

BELA cells [5] = test: RhoNox-M (lysosomal Fe2+ probe) flow cytometry; format: cell-based; settings: 10 μM, 24 h
Description: (§2) All cells were grown in an incubator equilibrated at 37° C. with 5% CO2, grown to confluence and split with Trypsin/EDTA (Gibco, TRYPGIB01) once or twice a week according to confluence. HMLER cells ([…]) naturally repressing E-cadherin, obtained from human mammary epithelial cells infected with a retrovirus carrying hTERT, SV40 and the oncogenic allele H-rasV12, and HMLER CD44 and TFRC ko clones were cultured in DMEM/F12 (Thermo Fisher Scientific, 31331093) supplemented with 10% FBS (v/v) (Thermo Fisher Scientific, 10270106), 10 μg/mL insulin (Sigma-Aldrich, 10516), 0.5 μg/mL hydrocortisone (Sigma-Aldrich, H0888) and 0.5 μg/ml puromycin (Life Technologies, A11138-02), unless stated otherwise. PDAC053 T cells were grown in serum-free ductal medium: DMEM/F12 supplemented with 0.61 g/500 mL nicotinamide (Sigma-Aldrich, 3376), 2.50 g/500 mL glucose (Sigma-Aldrich, G6152), 1:200 ITS+ (Corning, 354352), 1:20 Nu-serum IV (Corning, 355104), 100 ng/ml cholera toxin, 1 μM dexamethasone (Sigma-Aldrich, D4902), 50 nM 3,3′,5-triiodo-L-thyronine (Sigma-Aldrich, T6397) and 1× PenStrep. BELA cells were cultured using published procedures (Nat. Comm. doi: 10.1038/ncomms14750).
(§3) Bodipy-C11 (Thermo Fisher Scientific, D3861) were used according to the manufacturer's protocol. RhoNox-M (in-house) was added to live cells prior to flow cytometry analysis for 1 h at a concentration of 1 μM. For the Annexin/PI assay (Thermo Fisher Scientific, V13245, manufacturer's protocol) BELA cells were treated with RSL3 in the presence or absence of 1 μM Liproxstatin-1 (Sigma-Aldrich, SML1414) or 10 μM A3 for 24 h. Cells were then washed twice with ice-cold 1×PBS and suspended in incubation buffer prior to being analyzed by flow cytometry. The manufacturer's protocol was followed. For each condition, at least 10,000 cells were counted. Data were recorded on an Attune (Thermo Fisher Scientific) and processed using FlowJo (FLOWJO, LLC).

[6] = system: Cells treated with a ferroptosis inducer; test: BODIPY-C11 lipid peroxidation, cells treated with a ferroptosis inducer (FIG. 6a); format: cell-based; settings: co-treatment with ferroptosis inducer
Description: as §3

BELA cells [7] = test: Annexin/PI flow cytometry, RSL3-treated BELA cells (FIG. 7); format: cell-based; settings: various concentrations of RSL3, 10 μM A3, 24 h
Description: as §3

[8] = system: Cells treated with a ferroptosis inducer; test: CellTiter-Blue cell viability with a ferroptosis inducer (FIG. 6b); format: cell-based; settings: co-treatment with ferroptosis inducer
Description: Cell viability was evaluated by plating 4,000 cells/well in 96-well plates using CellTiter-Blue viability assay according to the manufacturer's protocol. CellTiter-Blue reagent (Promega, G8081) was added after 72 h treatment and cells were incubated for 2 h before recording fluorescence intensities (Eex. 560 nm; Eem. 590 nm) using a Perkin Elmer Wallac 1420 Victor2 Microplate Reader.

HMLER cells [9] = test: Click-chemistry fluorescence microscopy with LysoTracker co-staining, HMLER cells; format: cell-based, human; settings: 1 μM, 3 h, LysoTracker 45 mins, Alexa-488-N3 click
Description: as §2
Fluorescence microscopy of clickable serotonin analog A3: Cells were plated on cover slips 24 h prior to the experiment. […]

HMLER cells [10] = test: ICP-MS of total cellular iron and copper; format: cell-based, human; settings: 100 nM, 3 h or 24 h
Description: All cells were grown in an incubator equilibrated at 37° C. with 5% CO2, grown to confluence and split with Trypsin/EDTA (Gibco, TRYPGIB01) once or twice a week according to confluence. HMLER cells ([…]) naturally repressing E-cadherin, obtained from human mammary epithelial cells infected with a retrovirus carrying hTERT, SV40 and the oncogenic allele H-rasV12, and HMLER CD44 and TFRC ko clones were cultured in DMEM/F12 (Thermo Fisher Scientific, 31331093) supplemented with 10% FBS (v/v) (Thermo Fisher Scientific, 10270106), 10 μg/mL insulin (Sigma-Aldrich, 10516), 0.5 μg/mL hydrocortisone (Sigma-Aldrich, H0888) and 0.5 μg/ml puromycin (Life Technologies, A11138-02), unless stated otherwise. […]
Glass vials equipped with Teflon septa were cleaned with nitric acid 65% (w/v) (VWR, Suprapur, 1.00441.0250), washed with ultrapure water (Sigma-Aldrich, 1012620500) and dried. […] Cells were then counted using an automated cell counter (Entek) and transferred in 100 μL 1×PBS to the cleaned glass vials, and samples were lyophilized using a freeze dryer (CHRIST, 22080). […] 56Fe concentrations were measured using an Agilent 7900 ICP-QMS in low-resolution mode. […] Isotopes were measured using a collision-reaction interface with helium gas (5 mL/min) to remove polyatomic interferences. […]

PDAC cells [11] = test: Cell apoptosis assay with Annexin V and propidium iodide, RSL3-treated PDAC cells (FIG. 10a); format: cell-based; settings: RSL3 0.1, 0.5, 2, 10 μM, compounds 10 μM, 24 h
Description: as §1
PDAC cells were seeded on 6 well plates at the density of 2×10^5 cells/well. RSL3 (0.1, 0.5, 2, 10 µM) was added along with compounds (10 μM) on the following day and after 24 h, the media was recovered and the cells were typsinated. The cells were harvested, pelleted along with the media recovered, washed with PBS, and 100 μl of 1× annexin binding buffer containing annexin V and PI (according to the manufacturer's protocol Dead Cell Apoptosis Kits with Annexin V for Flow Cytometry (Invitrogen)). Finally, PBS buffer containing 10% FBS and 1 mM of EDTA, was added for flow cytometry.

[12] = reference in cyclic voltammetry; cited from earlier work

## C#CCOc1ccc2[nH]cc(CCN(CC#C)CC#C)c2c1 [Compound A1]
PDAC cells [1]
  localization in lysosomes: localized in lysosomes
PDAC cells [2]
  anti-ferroptotic activity (active / inactive compound): Active

## NCCc1c[nH]c2ccc(O)cc12 [Serotonin, serotonin hydrochloride]
[3]
  colour of solution in the presence of FeCl3 and CuSO4, indicative of complex formation: form differently colored solutions
  complex formation with Fe(II), Fe(III) and Cu(II): form readily complexes

## C#CCOc1ccc2c(c1)c(CCN(CC#C)CC#C)cn2CC#C [Compound A0]
PDAC cells [1]
  localization in lysosomes: doesn't go to lysosomes
PDAC cells [2]
  anti-ferroptotic activity (active / inactive compound): inactive
[4]
  binding / chelation of Fe^3+ (cyclic voltammetry): doesn't binds to Fe^3+

## CCCCNCCc1c[nH]c2ccc(O)cc12 [LT265B]
BELA cells [5]
  RhoNox-M fluorescence (lysosomal Fe(II)): increase of RhoNox-M fluorescence

## CCCCCCCCCCNCCc1c[nH]c2ccc(O)cc12 [LT262A]
BELA cells [5]
  RhoNox-M fluorescence (lysosomal Fe(II)): increase of RhoNox-M fluorescence

## C#CCN(CC#C)CCc1c[nH]c2ccc(O)cc12 [Compound A4]
PDAC cells [1]
  localization in lysosomes: localized in lysosomes
PDAC cells [2]
  anti-ferroptotic activity (active / inactive compound): Active

## CC(CCCCCCC(C)NCCc1c[nH]c2ccc(O)cc12)NCCc1c[nH]c2ccc(O)cc12 (stereo not drawn) [LC357]
BELA cells [5]
  RhoNox-M fluorescence (lysosomal Fe(II)): increase of RhoNox-M fluorescence

## C#CCNCCc1c[nH]c2ccc(O)cc12 [Compound A3]
[6]
  lipid peroxidation (BODIPY-C11 fluorescence) induced by a ferroptosis inducer: reduces lipid peroxidation; also recorded: reduction of lipid peroxidation
[3]
  colour of solution in the presence of FeCl3 and CuSO4, indicative of complex formation: form differently colored solutions
  complex formation with Fe(II), Fe(III) and Cu(II): form readily complexes
BELA cells [7]
  cell death induced by the ferroptosis inducer RSL3 (Annexin/propidium iodide): protects against RSL3-induced ferroptosis; also recorded: rescued cell death
[8]
  cell viability / cell death caused by a ferroptosis inducer: rescues cell death; also recorded: rescue of cell viability
HMLER cells [9]
  localization in lysosomes: found to localize in lysosomes; also recorded: accumulate in lysosomes
BELA cells [5]
  RhoNox-M fluorescence (lysosomal Fe(II)): increase of RhoNox-M fluorescence
PDAC cells [1]
  localization in lysosomes: found to localize in lysosomes; also recorded: goes to lysosomes
PDAC cells [1]; organelle antibodies
  colocalization with other cell organelles: not on other cell organelles; also recorded: doesn't colocalize with other cell organelles
HMLER cells [10]
  total intracellular copper (ICP-MS): increase
  total intracellular iron (ICP-MS): increase
PDAC cells [11]
  protection against RSL3-induced ferroptosis (Annexin/propidium iodide): protects against RSL3-induced ferroptosis
[4]
  binding / chelation of Fe^3+ (cyclic voltammetry): chelates/binds to Fe^3+

## Oc1ccc2[nH]cc(CCNC3CCCCC3)c2c1 [LC336]
BELA cells [5]
  RhoNox-M fluorescence (lysosomal Fe(II)): increase of RhoNox-M fluorescence

## CC(=O)N(O)CCCCCNC(=O)CCC(=O)N(O)CCCCCNC(=O)CCC(=O)N(O)CCCCCN [DFO]
[12]
  Fe^3+ chelation, known property of the reference: known Fe^3+ chelator
